According to US5998596A, “Inhibition of protein kinase activity by aptameric action of oligonucleotides” (The United States of America as represented by the …):
Entries after “also recorded” stand apart in the source; their conditions may differ.

How the values were obtained:
[1] = system: K562 cells; experiment: K562 colony formation in soft agar; format: cell-based, human; settings: 50 μM ODN, two weeks, not electroporated
Experimental: K562, NIH 3T3, and A431 cells were purchased from the American Type Culture Collection (Rockville, Md.). PC3M prostate cancer cells were a generous gift from J. Trepel (National Institutes of Health, Bethesda, Md.). K562 and PC3M cells were cultured in RPMI 1640 with 10% heat-inactivated fetal bovine serum (FBS; GIBCO BRL, Grand Island, N.Y.) while NIH 3T3 and A431 cells were cultured in Dulbecco's modified Eagle's medium (Biofluids, Rockville, Md.) with 10% heat inactivated FBS. Cells were maintained at 37° C., 6% carbon dioxide with biweekly media changes. For soft agar cloning, cells were suspended in 0.3% low melting temperature agarose (SeaPlaque FMC BioProducts, Rockland, Me.) in RPMI 1640 with 10% total calf serum and maintained as above.
To evaluate the effects of these various ODNs of K562 cell growth, both growth in liquid culture and growth in soft agar were examined. […] Cells were electroporated in the presence of 50 μM ODN and kept in liquid culture. For soft agar cloning experiments, cells were not electroporated, but were grown in the presence of 50 μM ODN for two weeks. Liquid cultures were replenished with fresh medium containing 50 μM ODN. Two weeks following incubation in liquid culture, the number of trypan blue-excluding cells was determined. No effect on cell growth in liquid culture could be observed with any ODN tested (data not shown).

[2] = system: cellular phosphotyrosine content of K562 cells; experiment: Western analysis of total cellular phosphotyrosine content after electroporation of K562 cells; format: cell-based, human; settings: K562 cells electroporated with 100 μM ODN, one hour later
Experimental: One hundred micrograms of protein from cell lysates were separated on a 7% SDS polyacrylamide gel. Transfer was performed overnight at 50 volts, 4° C., in a 0.2 M glycine, 25 mM Tris, pH 8.3, 0.15% SDS, 20% methanol buffer, onto […] nitrocellulose (Schleicher and Schuell Inc.). For cellular phosphotyrosine blots, Western probing was performed as described previously, with modifications (SARTOR, et al, 1991). Briefly, membranes were blocked for 2 hours with 5% albumin in TTBS (20 mM Tris HCL, pH 7.6; 0.05% Tween 20; 0.9% sodium chloride), probed for 1 hour with antiphosphotyrosine antibody (Upstate Biotechnology Inc., Lake Placid, N.Y.) diluted 1:500 in TTBS, followed by rabbit anti-mouse antibody (Cappel Research Products) and then [^125 I] protein A Sepharose (Amersham Corp., Arlington Heights, Ill.). Membranes were exposed to Kodak X-OMAT AR film overnight at -70° C. with intensifying screens.
(§1) Electroporation was performed as described (40). Briefly, 1-5×10^6 cells in 1 ml of RPMI 1640 with 10% fetal calf serum were placed into 0.4 cm gap electroporation chambers and electroporated with a Cell-Porator Electroporation System 1 (all from GIBCO BRL, Grand Island, N.Y.) at 800 microfarrads, 300 volts, at room temperature. Cells were then incubated at 37° C. for 1 hour before manipulation.
In K562 cells p210^bcr-abl is a major kinase responsible for protein tyrosine phosphorylation (38, 39). Changes in enzyme activity are therefore reflected by changes in cellular phosphotyrosine content.

[3] = system: p210^bcr-abl protein level in K562 cells; experiment: Western analysis of p210bcr-abl protein level in ODN treated K562 cells; format: cell-based, human; settings: one hour after electroporation with 100 μM ODN
Experimental: For p210^bcr-abl Western analysis, probing was carried out with the ECL Western blotting kit (Amersham) according to manufacturer's instructions. Briefly, membranes were blocked in 5% non-fat dry milk in TTBS for 1 hour, incubated with anti-p210^bcr-abl antibody (clone 8E9, Pharmingen, San Diego, Calif.) diluted 1:500 in TTBS for 1 hour, with sheep anti-mouse horseradish peroxidase-linked antibody (diluted 1:1000) for 1 hour, and lastly incubated in a luminol based detection solution for 1 minute. Membranes were exposed to Kodak X-OMAT AR film for various time periods.
as §1

[4] = system: lck kinase; experiment: Immunoprecipitation kinase assay of lck; format: biochemical
Description: (§2) The p210^bcr-abl kinase, src kinase and cdc-2 kinase were immunoprecipitated from K562 cells. The p145^abl kinase was immunoprecipitated from PC3M cells, PDGF receptor kinase from 3T3 cells, and EGF receptor kinase from A431 cells. MAP kinase was utilized as a pure protein and lck kinase was immunoprecipitated from peripheral blood lymphocytes of a normal volunteer.
(§3) Epidermal growth factor receptor (EGFR) was immunoprecipitated with 10 ,g anti-EGFR antibody (clone LA1) and human recombinant epidermal growth factor (both from Upstate Biotechnology Inc., Lake Placid, N.Y.). The assay was performed as described (17) but without removing the EGFR from the protein A-antibody solid support. Instead, epidermal growth factor, at a final concentration of 100 nM, was added to the kinase reaction mixture. Platelet derived growth factor receptor (DGFR) was immunoprecipitated with anti-human type A/type B PDGFR antibody (Upstate Biotechnology Inc.) and immune complex kinase assays performed as referenced (18) except that protein A-Sepharose coated with rabbit anti-mouse immunoglobulin was used instead of formalin-fixed Staphylococcus aureus to bind PDGFR-antibody conjugates. C-src was immunoprecipitated with anti-v-src antibody (Ab-1; Oncogene Science) and assayed as previously described (19) with the addition of enolase as exogenous substrate. […]

[5] = system: Platelet derived growth factor receptor (PDGFR); experiment: PDGFR autophosphorylation immune complex kinase assay; format: biochemical
Description: as §2, §3

## 5'-GTCCACCATGGCGCGGCCGGC-3' [ODN1] (phosphorothioate caps, further chemistry not given here) [21mer ODN complementary to nucleotides -12 to +9 of the p210bcr-abl mRNA, phosphorothioate capped unless otherwise specified]
[1]
  ability to form colonies in soft agar: inhibited the ability of these cells to form colonies in soft agar
[2]; listed as BCR-AS
  total cellular protein phosphotyrosine content: dropped significantly; also recorded: reduced protein phosphotyrosine content
[2]; listed as BCR-AS phosphorothioate capped
  total cellular protein phosphotyrosine content: equally effective
[3]
  p210^bcr-abl protein level: no decrement
[4]; Cerenkov counting of excised gel slices
  IC50: > 50 µM
[4]; ODN1 concentrations greater than 2 logs above the Ki for p210^bcr-abl
  inhibition of lck (in words): not significantly inhibited
[5]
  sensitivity of PDGF receptor relative to p145^abl or p210^bcr-abl: almost a log less sensitive
[5]; Cerenkov counting of excised gel slices, mean ± SD
  IC50: 4.4 ± 2.3 µM
